Like-named read-outs stand apart in the source and are kept apart here.
Tested on: A549 adenocarcinoma cell line
Assay: In vitro antitumor screening, MTS assay
Format: cell-based
Conditions: Homo sapiens
Method: The synthesized derivatives were tested for their antitumor activity adopting MTS assay against A549 adenocarcinoma cell line following the reported assay method In Riss et al. Results are shown in Table 2.

[1] = A549 cell line, read-out: IC50, MTS assay against A549 cell line
[2] = A549 adenocarcinoma cell line, Table 2, read-out: IC50

| IC50 [1] | IC50 [2] | Compound |
| --- | --- | --- |
| 7600 nM | – | N#Cc1c(NC(=O)c2cccc(Br)c2)sc2c1CCCC2 [Compound 4] |
| 2700 nM | 2700 nM | N#Cc1c(NCc2ccc(Br)cc2)sc2c1CCCC2 [Compound 10] |
| 1600 nM | 1600 nM | N#Cc1c(NC(=O)NCc2ccccc2)sc2c1CCCC2 [Compound 11] |
